# Data published in US20050096347A1, “Beta3-Adrenoreceptor agonists, agonist compositions and methods of using” (Molecular Design International, Inc., priority 1997, published 2005).
# Counter-ions that a name gives are not always drawn. Like-named read-outs stand apart in the source and are kept apart here.
# Key:
# Human β3 Adrenoreceptors = biological target: T1, Human β3 Adrenoreceptors (Homo sapiens, UniProt P13945); test: hβ3 cAMP functional activity in CHO cells expressing human β3 adrenoreceptors (Table 8); format: cell-based; details: for EC50: read-out: hβ3 cAMP EC50(nM) +/−SEM
# T1 construct: expressed in transfected cells
# human β2 Adrenoreceptor = biological target: T2, human β2 Adrenoreceptor (Homo sapiens, UniProt P07550); test: Radioligand competition binding, human β2 adrenoreceptor expressed in CHO cells ([125I]ICYP); details: for pKi ± SEM, Human β2 Adrenoreceptor CHO: [125I]ICYP as radioligand, N = 4-9; for P.R. (potency ratio), Human β2 Adrenoreceptor CHO: relative to cmpd. 1 (TMQ), PR = antilog [pKi(drug) − pKi(TMQ)]
# T2 construct: expressed in transfected cells
# human β1 Adrenoreceptor = human β1 Adrenoreceptor (Homo sapiens, UniProt P08588); test: Radioligand competition binding, human β1 adrenoreceptor expressed in CHO cells ([125I]ICYP)
# Procedure: Competitive and comparative binding experiments on β1 Adrenoreceptors, β2 Adrenoreceptors and β3-Adrenoreceptors expressed in CHO cells were performed as described previously. […] CHO cells grown to a confluence in 150-mL flasks were detached into Ham's F-12 medium after treatment with 0.05% trypsin-0.53 mM EDTA solution. The cells were then pelleted and washed three times with Tris-EDTA buffer (50 mM Tris-HCl, 150 mM NaCl, 20 mM EDTA, pH 7.4) and resuspended in the same buffer.
# Competition binding experiments were performed in duplicates using these whole cells. […] The final volume in each tube was 0.25 mL. Nonspecific binding (5-30%) was determined in the presence of 1 μM (±)-propranolol. Incubations were carried out for 60 min at 37° C. Binding reactions were terminated by rapid filtration through Whatman GF/B glass fiber filters on a Brandel model 12-R tissue harvester. Filters were washed twice with ice cold Tris-EDTA buffer to remove free ICYP. The filters were dried under tissue harvester vacuum and radioactivity was measured by gamma scintillation spectrometry (Beckman model 8000 gamma counter, Palo Alto, Calif.). Specific binding to β Adrenoreceptor sites in these cells varied from 94 to 100%
# Inhibitory concentration-50 (IC50) value of each competing drug was determined graphically from individual plots of percent radioligand bound versus log drug concentration on O-adrenoceptors and human platelets. […] Dissociation constants (Ki) for each competing drug were calculated using the equation: [formula] and the data expressed as pKi (i.e., −log Ki) values.
# Human β1-AR = Human β1-AR (Homo sapiens, UniProt P08588); test: cAMP radioimmunoassay (cAMP-RIA), CHO cells expressing human β1-AR; format: cell-based; set-up: expressed in transfected cells; details: percentage of maximal response of R-(−)-isoproterenol (100%)
# Procedure: (§1) cAMP Radioimmunoassay (CAMP-RIA Assay). […] The precipitated protein was dissolved in 0.1N NaOH.
# Human β3-AR = Human β3-AR (Homo sapiens, UniProt P13945); test: cAMP radioimmunoassay (cAMP-RIA), CHO cells expressing human β3-AR; format: cell-based; set-up: expressed in transfected cells; details: for I.A., Human β3-AR, cAMP-RIA assay: percentage of maximal response of R-(−)-isoproterenol (100%)
# Procedure: as §1
# Atypical-β/β3-AR = Atypical-β/β3-AR (Rattus norvegicus, UniProt P26255); test: Relaxation of carbachol-precontracted rat esophageal smooth muscle; details: for I.A. (intrinsic activity), Esophageal Smooth Muscle (Atypical-β/β3-AR): maximal response relative to maximal response of (−)-isoproterenol
# Procedure: (§2) Male Sprague Dawley rats (Harlan Industries, Cumberland, Ind.) housed under a 12 hour light/dark cycle and fed Purina Rodent Laboratory Chow (Ralston Purina., St. Louis, Mo.) and water ad libitum, were used for the studies. […] All tissues were suspended and equilibrated in modified Kreb's buffer in water-jacketed baths at 37° C. Resting tensions of 1 g for right atria, trachea and aorta, and of 200 mg for esophageal smooth muscle were used. All tissue responses were measured on a Grass Polygraph Model 7C with a Grass FT-03C isometric force-displacement transducer.
# (§3) Carbachol-precontracted tissues were included as controls through the duration of relaxation studies.
# β2-AR = β2-AR (Rattus norvegicus, UniProt P10608); test: Relaxation of carbachol-precontracted isolated rat tracheal strips; details: for I.A. (intrinsic activity), Trachea: maximal response relative to maximal response of (−)-isoproterenol
# Procedure: as §2, §3
# rat-β3-AR [1] = biological target: T3, rat-β3-AR (Rattus norvegicus, UniProt P26255); test: cAMP accumulation in CHO cells expressing rat β3-AR; format: cell-based; details: for Emax: read-out: Emax, maximal cAMP accumulation; for EC50: read-out: pKact (−log EC50) for cAMP accumulation, rat-β3-AR (converted)
# T3 construct: expressed in transfected cells; host or cells: CHO cells
# Procedure: as §1
# rat-β3-AR [2] = biological target: T3, rat-β3-AR; test: Binding in CHO cells expressing rat β3-AR; details: mean ± SEM (n in parentheses), read-out: pKi (−log Ki) for binding, rat-β3-AR (converted)
# [3] = biological target: T4, Thromboxane A2/Prostaglandin H2 (TP) receptor (Homo sapiens, UniProt P21731); test: Radioligand competition binding, TP receptor sites in human platelets ([3H]SQ 29,548); details: for pKi ± SEM, Human TP receptors: [3H]SQ 29,548 as radioligand, platelets, N = 4-9; for P.R. (potency ratio), Human TP receptors: relative to cmpd. 1 (TMQ), PR = antilog [pKi(drug) − pKi(TMQ)]
# T4 construct: endogenous in cells; host or cells: human platelets (from platelet rich plasma)
# T4 sequence (P21731 1-343): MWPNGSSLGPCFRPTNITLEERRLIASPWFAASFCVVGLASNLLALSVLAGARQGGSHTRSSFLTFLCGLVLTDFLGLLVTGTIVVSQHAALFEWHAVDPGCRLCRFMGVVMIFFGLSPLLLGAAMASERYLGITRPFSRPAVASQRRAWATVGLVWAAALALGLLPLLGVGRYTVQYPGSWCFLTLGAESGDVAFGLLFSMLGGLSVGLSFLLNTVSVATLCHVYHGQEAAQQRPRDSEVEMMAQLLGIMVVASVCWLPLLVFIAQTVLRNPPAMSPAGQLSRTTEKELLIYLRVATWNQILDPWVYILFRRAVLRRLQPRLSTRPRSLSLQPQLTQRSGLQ
# Procedure: For binding experiments, human platelet rich plasma (PRP) was centrifuged and re-suspended in 50 mM Tris-saline buffer, pH 7.4. […] Filters were placed in plastic scintillation vials containing 10 mL of an emulsion-type scintillation mixture and radioactivity measured by liquid scintillation spectrometry.
# β1-AR = β1-AR (Rattus norvegicus, UniProt P18090); test: Chronotropic responses of spontaneously beating isolated rat right atria
# Procedure: as §2
# The tissue was again washed 6-7 times with 10 ml of buffer, followed by repeated washes every 10-15 min.
# [4] = CHO cells (Table 8), read-out: hβ2 Binding ki
# [5] = CHO cells, mean ± SEM (n in parentheses)
# [6] = relative to that of (−)-isoproterenol, CHO cells expressing rat-β3-AR
# T3 sequence (P26255 whole entry): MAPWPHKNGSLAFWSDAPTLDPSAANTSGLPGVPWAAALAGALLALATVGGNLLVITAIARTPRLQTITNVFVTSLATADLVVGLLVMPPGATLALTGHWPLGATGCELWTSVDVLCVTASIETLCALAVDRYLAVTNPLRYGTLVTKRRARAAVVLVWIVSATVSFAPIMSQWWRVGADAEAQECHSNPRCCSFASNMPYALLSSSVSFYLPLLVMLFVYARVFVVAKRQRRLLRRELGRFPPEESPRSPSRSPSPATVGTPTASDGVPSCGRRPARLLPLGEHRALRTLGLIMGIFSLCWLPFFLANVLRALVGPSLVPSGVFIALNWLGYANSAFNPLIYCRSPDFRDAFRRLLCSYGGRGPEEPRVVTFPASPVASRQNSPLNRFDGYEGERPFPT
# Chain of Atypical-β/β3-AR (P26255 whole entry): as above
# Chain of human β1 Adrenoreceptor (P08588 whole entry): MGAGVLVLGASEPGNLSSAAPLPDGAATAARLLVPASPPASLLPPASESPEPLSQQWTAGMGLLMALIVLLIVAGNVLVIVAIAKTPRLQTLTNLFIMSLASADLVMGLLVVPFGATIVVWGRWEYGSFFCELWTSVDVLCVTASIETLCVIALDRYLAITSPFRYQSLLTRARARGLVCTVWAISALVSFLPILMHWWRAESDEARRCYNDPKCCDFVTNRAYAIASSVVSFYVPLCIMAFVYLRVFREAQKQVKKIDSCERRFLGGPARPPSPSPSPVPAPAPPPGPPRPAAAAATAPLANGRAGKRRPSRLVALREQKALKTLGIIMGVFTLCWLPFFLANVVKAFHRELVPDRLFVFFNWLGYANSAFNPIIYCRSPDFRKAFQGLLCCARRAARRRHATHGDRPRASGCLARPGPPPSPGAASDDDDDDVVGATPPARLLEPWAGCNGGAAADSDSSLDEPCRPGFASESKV
# Chain of β2-AR (P10608 whole entry): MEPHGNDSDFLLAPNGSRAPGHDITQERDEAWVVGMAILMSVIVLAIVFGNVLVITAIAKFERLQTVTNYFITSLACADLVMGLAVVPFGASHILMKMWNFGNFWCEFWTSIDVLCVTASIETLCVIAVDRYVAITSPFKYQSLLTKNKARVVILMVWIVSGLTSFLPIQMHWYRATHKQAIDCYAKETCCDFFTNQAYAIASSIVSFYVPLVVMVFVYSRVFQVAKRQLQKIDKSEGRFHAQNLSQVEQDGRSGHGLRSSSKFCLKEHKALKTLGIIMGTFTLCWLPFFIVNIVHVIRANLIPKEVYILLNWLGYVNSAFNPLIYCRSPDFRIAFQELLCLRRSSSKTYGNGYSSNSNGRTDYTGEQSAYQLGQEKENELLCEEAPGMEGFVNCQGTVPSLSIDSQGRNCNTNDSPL
# T2 sequence (P07550 whole entry): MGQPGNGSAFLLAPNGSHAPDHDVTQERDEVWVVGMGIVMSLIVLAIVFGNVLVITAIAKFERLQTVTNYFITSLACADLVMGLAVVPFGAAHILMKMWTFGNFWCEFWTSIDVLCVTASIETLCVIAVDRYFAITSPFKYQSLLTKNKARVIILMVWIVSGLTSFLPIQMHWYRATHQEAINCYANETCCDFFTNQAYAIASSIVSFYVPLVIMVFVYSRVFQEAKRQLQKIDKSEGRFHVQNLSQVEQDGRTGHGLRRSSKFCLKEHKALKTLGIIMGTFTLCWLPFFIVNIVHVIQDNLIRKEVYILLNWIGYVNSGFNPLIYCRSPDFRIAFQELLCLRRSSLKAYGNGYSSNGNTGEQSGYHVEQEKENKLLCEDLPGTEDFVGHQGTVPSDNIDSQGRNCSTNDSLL
# T1 sequence (P13945 whole entry): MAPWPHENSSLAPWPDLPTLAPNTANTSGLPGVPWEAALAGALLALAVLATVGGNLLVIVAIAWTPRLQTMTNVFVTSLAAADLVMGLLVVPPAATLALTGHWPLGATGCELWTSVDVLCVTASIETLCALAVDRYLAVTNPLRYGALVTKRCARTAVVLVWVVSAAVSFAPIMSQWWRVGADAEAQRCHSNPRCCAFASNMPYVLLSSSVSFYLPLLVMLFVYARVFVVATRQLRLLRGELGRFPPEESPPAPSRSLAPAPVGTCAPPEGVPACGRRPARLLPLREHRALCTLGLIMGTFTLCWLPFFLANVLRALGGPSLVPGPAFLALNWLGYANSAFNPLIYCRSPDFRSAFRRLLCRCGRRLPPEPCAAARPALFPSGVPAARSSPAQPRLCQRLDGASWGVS
# Chain of Human β3-AR (P13945 whole entry): as above
# Chain of Human β1-AR (P08588 whole entry): as the sequence (P08588 whole entry) above
# Chain of β1-AR (P18090 whole entry): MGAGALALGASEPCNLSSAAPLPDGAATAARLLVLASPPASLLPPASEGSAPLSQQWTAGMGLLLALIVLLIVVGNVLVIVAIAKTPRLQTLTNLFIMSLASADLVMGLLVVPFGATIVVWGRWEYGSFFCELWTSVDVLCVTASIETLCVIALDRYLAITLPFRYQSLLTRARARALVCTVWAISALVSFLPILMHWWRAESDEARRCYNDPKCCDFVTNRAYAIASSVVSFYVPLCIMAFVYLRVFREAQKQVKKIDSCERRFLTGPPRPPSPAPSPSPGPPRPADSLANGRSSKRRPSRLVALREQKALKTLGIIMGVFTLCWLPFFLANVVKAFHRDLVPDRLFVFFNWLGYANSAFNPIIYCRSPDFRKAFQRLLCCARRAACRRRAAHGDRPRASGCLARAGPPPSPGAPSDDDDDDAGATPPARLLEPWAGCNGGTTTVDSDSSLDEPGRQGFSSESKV
structure (smiles),measurement,setting,value
COc1c(I)cc(CC2NCCc3nc(N)sc32)cc1I (stereo not shown),EC50,Human β3 Adrenoreceptors,506 nM
same,Ki,human β2 Adrenoreceptor,534 nM
[N-]=[N+]=Nc1ccc(CC2NCCc3cc(O)c(O)cc32)cc1I (stereo not shown),hβ3 cAMP % Iso +/−SEM,Human β3 Adrenoreceptors,81 +/− 3 % Iso
same,EC50,Human β3 Adrenoreceptors,46 nM
same,Ki,human β2 Adrenoreceptor; [4],24 nM
same,Ki,human β1 Adrenoreceptor,14.2 nM
Nc1c(I)cc(CC2NCCc3cc(O)c(O)cc32)cc1I (stereo not shown),hβ3 cAMP % Iso +/−SEM,Human β3 Adrenoreceptors,108 +/− 2 % Iso
same,EC50,Human β3 Adrenoreceptors,< 4 nM
same,Ki,human β1 Adrenoreceptor,63.4 nM
COc1cc(CC2NCCc3nc(N)sc32)cc(OC)c1OC (stereo not shown),EC50,Human β3 Adrenoreceptors,> 3160 nM
same,Ki,human β2 Adrenoreceptor; [4],> 3000 nM
same,Ki,human β1 Adrenoreceptor,> 3000 nM
COc1cc(CC2NCCc3cc(O)c(O)cc32)cc(OC)c1OC (stereo not shown),EC50,Human β3 Adrenoreceptors,< 1 nM
"COc1cc(CC2NCCc3cc(O)c(O)cc32)cc(OC)c1OC (racemic) [Compound 1, trimetoquinol, reference compound]","I.A. ± SEM, Human β1-AR, cAMP-RIA assay",Human β1-AR,109 ± 10%
same,EC50,Human β3-AR,2.51 nM
"CC(C)NC[C@H](O)c1ccc(O)c(O)c1 (single isomer, unassigned) [(−)Isoproterenol, isoproterenol, reference compound]","I.A., Human β3-AR, cAMP-RIA assay",Human β3-AR,100%
same,"I.A. (intrinsic activity), Esophageal Smooth Muscle (Atypical-β/β3-AR)",Atypical-β/β3-AR,1.00
same,"I.A. (intrinsic activity), Trachea",β2-AR,1.00
same,Emax,rat-β3-AR [1]; CHO,100%
"COc1cc2c(cc1OC)C(Cc1cc(OC)c(OC)c(OC)c1)NCC2 (stereo not shown) [6,7-Dimethoxy TMQ, reference compound]",Ki,rat-β3-AR [2],132000 nM
same,"pKact (−log EC50) for cAMP accumulation, rat-β3-AR",rat-β3-AR [1]; [5],no activity upto 3 × 10^−5 M
"COc1cc2c(cc1OC)C(Cc1cc(I)c(NC(C)=O)c(I)c1)NCC2 (stereo not shown) [6,7-Dimethoxy-acetamidoDITMQ, 1-(4-Acetamido-3,5-diiodobenzyl)-6,7-dimethoxy-1,2,3,4-tetrahydroisoquinoline Hydrochloride]",Ki,rat-β3-AR [2],14500 nM
"COc1cc(CC2NCCc3cc4c(cc32)OCO4)cc(OC)c1OC (stereo not shown) [6,7-Methylenedioxy TMQ]",Ki,rat-β3-AR [2],51300 nM
same,EC50,rat-β3-AR [1]; [5],1200 nM
same,Emax,rat-β3-AR [1]; [6],70.9 ± 4.41%
"COc1c(I)cc(CC2NCCc3cc(O)c(O)cc32)cc1I (stereo not shown) [Compound 2, reference compound]",Ki,rat-β3-AR [2],457 nM
same,"pKi ± SEM, Human TP receptors",[3],7.33
same,EC50,rat-β3-AR [1]; [5],0.398 nM
same,Emax,rat-β3-AR [1]; [6],96.9 ± 10.1%
COc1c(I)cc(CC2NCCc3nc(NC(C)=O)sc32)cc1I.O=C(O)/C=C\C(=O)O (stereo not shown) [Compound 10],"I.A. ± SEM, Human β1-AR, cAMP-RIA assay",Human β1-AR,<10%
same,"I.A., Human β3-AR, cAMP-RIA assay",Human β3-AR,<10%
"Br.CC(=O)Nc1c(I)cc(CC2NCCc3cc(O)c(O)cc32)cc1I (stereo not shown) [Compound 15, 1-(4-Acetamido-3,5-diiodobenzyl)-6,7-dihydroxy-1,2,3,4-tetrahydroisoquinoline Hydrobromide]",Ki,rat-β3-AR [2],52.5 nM
same,EC50,β1-AR,1.1 nM
same,"I.A. (intrinsic activity), Right Atria (β-AR)",β1-AR; maximal response relative to maximal response of (−)-isoproterenol,0.93 ± 0.04
same,"pKi ± SEM, Human β2 Adrenoreceptor CHO",human β2 Adrenoreceptor,8.06
same,"pKi ± SEM, Human TP receptors",[3],6.45
same,EC50,Atypical-β/β3-AR,2.09 nM
same,"I.A. (intrinsic activity), Esophageal Smooth Muscle (Atypical-β/β3-AR)",Atypical-β/β3-AR,0.99 ± 0.03
same,EC50,β2-AR,0.603 nM
same,"I.A. (intrinsic activity), Trachea",β2-AR,0.84 ± 0.02
same,EC50,rat-β3-AR [1]; [5],0.457 nM
same,Emax,rat-β3-AR [1]; [6],89.6 ± 6.93%
"Br.Oc1cc2c(cc1O)C(Cc1cc(I)c(O)c(I)c1)NCC2 (stereo not shown) [Compound 18, 6,7-Dihydroxy-1-(4-hydroxy-3,5-diiodobenzyl)-1,2,3,4-tetrahydroisoquinoline Hydrobromide]","pKi ± SEM, Human β2 Adrenoreceptor CHO",human β2 Adrenoreceptor,7.93
same,"pKi ± SEM, Human TP receptors",[3],4.72
"Br.Oc1cc2c(cc1O)C(Cc1cc(I)c(I)c(I)c1)NCC2 (stereo not shown) [Compound 21b, 6,7-Dihydroxy-1-(3,4,5-triiodobenzyl)-1,2,3,4-tetrahydroisoquinoline Hydrobromide]","pKi ± SEM, Human β2 Adrenoreceptor CHO",human β2 Adrenoreceptor,8.82
same,"P.R. (potency ratio), Human β2 Adrenoreceptor CHO",human β2 Adrenoreceptor,29
same,"pKi ± SEM, Human TP receptors",[3],4.22
same,"P.R. (potency ratio), Human TP receptors",[3],0.003
"Cl.Cl.Nc1c(I)cc(CC2NCCc3cc(O)c(O)cc32)cc1I (stereo not shown) [Compound 21c, 1-(4-Amino-3,5-diiodobenzyl)-6,7-dihydroxy-1,2,3,4-tetrahydroisoquinoline Dihydrochloride]",Ki,rat-β3-AR [2],724 nM
same,"pKi ± SEM, Human β2 Adrenoreceptor CHO",human β2 Adrenoreceptor,8.81
same,"P.R. (potency ratio), Human β2 Adrenoreceptor CHO",human β2 Adrenoreceptor,28
same,fold reduction in TP receptor binding affinity compared to 2,[3],3 fold
same,"pKi ± SEM, Human TP receptors",[3],6.73
same,"P.R. (potency ratio), Human TP receptors",[3],0.87
"CC(=O)Nc1ccc(CC2NCCc3cc(O)c(O)cc32)cc1I.I (stereo not shown) [Compound 26a, 1-(4-Acetamido-3-iodobenzyl)-6,7-dihydroxy-1,2,3,4-tetrahydroisoquinoline Hydroiodide]","pKi ± SEM, Human β2 Adrenoreceptor CHO",human β2 Adrenoreceptor,8.11
same,"P.R. (potency ratio), Human β2 Adrenoreceptor CHO",human β2 Adrenoreceptor,5.6
same,"fold decrease in TP receptor binding affinity on removal of one iodine (24 vs 21c, 26a vs 15)",[3],5 fold
same,"pKi ± SEM, Human TP receptors",[3],5.83
same,"P.R. (potency ratio), Human TP receptors",[3],0.11
"I.O=C(Nc1ccc(CC2NCCc3cc(O)c(O)cc32)cc1I)c1ccccc1 (stereo not shown) [Compound 26b, 1-(4-Benzoylamino-3-iodobenzyl)-6,7-dihydroxy-1,2,3,4-tetrahydroisoquinoline Hydroiodide]","pKi ± SEM, Human β2 Adrenoreceptor CHO",human β2 Adrenoreceptor,8.70
same,"P.R. (potency ratio), Human β2 Adrenoreceptor CHO",human β2 Adrenoreceptor,22
same,"pKi ± SEM, Human TP receptors",[3],5.27 ± 0.13
same,"P.R. (potency ratio), Human TP receptors",[3],0.03
"Cl.Oc1cc2c(cc1O)C(Cc1cc(C(F)(F)F)cc(C(F)(F)F)c1)NCC2 (stereo not shown) [Compound 27, 1-(3,5-Bis-trifluoromethylbenzyl)-6,7-dihydroxy-1,2,3,4-tetrahydroisoquinoline Hydrochloride]","pKi ± SEM, Human β2 Adrenoreceptor CHO",human β2 Adrenoreceptor,5.36
same,"P.R. (potency ratio), Human β2 Adrenoreceptor CHO",human β2 Adrenoreceptor,0.01
same,"pKi ± SEM, Human TP receptors",[3],4.08 ± 0.02
same,"P.R. (potency ratio), Human TP receptors",[3],0.002
Oc1cc2c(cc1O)C(Cc1cc(I)cc(I)c1)NCC2 (stereo not shown) [DemethoxyDITMQ],Ki,rat-β3-AR [2],1580 nM
same,EC50,rat-β3-AR [1]; [5],1.82 nM
same,Emax,rat-β3-AR [1]; [6],97.7 ± 5.85%
COc1c(I)cc(CC2NCCc3cc(O)c(O)cc32)cc1I (stereo not shown) [drawing 80],EC50,Human β3 Adrenoreceptors,< 4 nM
same,Ki,human β2 Adrenoreceptor; [4],3.1 nM
COc1c(I)cc(CC2NCCc3cc(O)ccc32)cc1I (stereo not shown) [drawing 83],hβ3 cAMP % Iso +/−SEM,Human β3 Adrenoreceptors,89 +/− 5 % Iso
same,EC50,Human β3 Adrenoreceptors,33.5 nM
same,Ki,human β2 Adrenoreceptor; [4],47 nM
same,Ki,human β1 Adrenoreceptor,278 nM
